Blank lines part the entries; values can stand above or below the compound they belong to.
Experiments:
[1] = molecular target: Serine/threonine-protein kinase 38-like (Homo sapiens) (UniProt Q9Y2H1); assay: Selectivity interaction (ActivX KiNativ screen (kinase selectivity in THP-1 cell lysates)) EUB0000639a STK38L; type: subcellular; details: lysate, at 5 µM
[2] = molecular target: LIM domain kinase 1 (Homo sapiens) (UniProt P53667); assay: Selectivity interaction (Kinase panel (Invitrogen)) EUB0000639a LIMK1; details: at 200 nM
Sequence of LIM domain kinase 1 (Homo sapiens) (P53667 whole entry, looked up, the tested form may be a part): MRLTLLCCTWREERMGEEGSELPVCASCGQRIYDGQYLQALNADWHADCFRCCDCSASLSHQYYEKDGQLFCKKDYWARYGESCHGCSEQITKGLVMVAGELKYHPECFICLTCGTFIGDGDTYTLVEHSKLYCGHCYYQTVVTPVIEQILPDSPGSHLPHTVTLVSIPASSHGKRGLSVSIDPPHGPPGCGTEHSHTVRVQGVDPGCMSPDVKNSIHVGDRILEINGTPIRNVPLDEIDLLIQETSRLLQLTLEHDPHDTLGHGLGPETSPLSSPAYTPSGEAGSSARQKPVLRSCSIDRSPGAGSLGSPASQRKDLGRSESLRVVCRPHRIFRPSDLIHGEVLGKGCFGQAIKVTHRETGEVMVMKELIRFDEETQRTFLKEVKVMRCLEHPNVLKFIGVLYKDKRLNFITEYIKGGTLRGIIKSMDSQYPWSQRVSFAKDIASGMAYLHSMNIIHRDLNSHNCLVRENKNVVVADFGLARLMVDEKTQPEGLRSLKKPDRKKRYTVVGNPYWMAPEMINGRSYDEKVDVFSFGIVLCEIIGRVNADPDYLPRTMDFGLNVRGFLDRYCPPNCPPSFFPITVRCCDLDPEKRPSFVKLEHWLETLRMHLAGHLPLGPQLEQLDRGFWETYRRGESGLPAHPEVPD

[3] = molecular target: Histone acetyltransferase KAT2B (Homo sapiens, UniProt Q92831); assay: Selectivity interaction (Bromodomain panel (DSF asssay)) EUB0000270b KAT2B
Sequence of Histone acetyltransferase KAT2B (Q92831 whole entry, looked up): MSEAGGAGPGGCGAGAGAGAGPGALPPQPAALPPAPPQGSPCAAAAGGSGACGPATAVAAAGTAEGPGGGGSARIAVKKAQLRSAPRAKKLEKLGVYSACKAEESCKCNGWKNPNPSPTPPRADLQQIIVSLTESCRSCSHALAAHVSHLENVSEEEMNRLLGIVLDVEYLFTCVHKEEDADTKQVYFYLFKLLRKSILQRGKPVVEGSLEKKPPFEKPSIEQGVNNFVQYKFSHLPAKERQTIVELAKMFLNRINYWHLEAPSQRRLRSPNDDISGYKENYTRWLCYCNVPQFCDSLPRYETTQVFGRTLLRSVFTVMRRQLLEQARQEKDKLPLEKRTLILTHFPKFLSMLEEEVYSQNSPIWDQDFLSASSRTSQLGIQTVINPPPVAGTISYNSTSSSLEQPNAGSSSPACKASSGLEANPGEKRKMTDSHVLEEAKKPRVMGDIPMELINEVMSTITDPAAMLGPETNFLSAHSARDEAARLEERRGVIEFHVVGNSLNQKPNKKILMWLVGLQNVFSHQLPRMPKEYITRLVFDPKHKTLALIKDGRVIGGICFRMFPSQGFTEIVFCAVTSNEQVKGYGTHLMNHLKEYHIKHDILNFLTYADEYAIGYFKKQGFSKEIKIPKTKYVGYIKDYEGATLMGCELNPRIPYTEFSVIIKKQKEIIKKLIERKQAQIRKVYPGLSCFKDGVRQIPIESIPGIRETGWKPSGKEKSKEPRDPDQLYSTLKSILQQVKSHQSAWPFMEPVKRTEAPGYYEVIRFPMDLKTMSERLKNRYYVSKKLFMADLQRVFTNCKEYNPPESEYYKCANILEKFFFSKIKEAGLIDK

[4] = molecular target: T1, Histone-lysine N-methyltransferase NSD3 (Homo sapiens) (UniProt Q9BZ95); assay: Selectivity interaction (Methyltransferase screen (radiometric assays, panel of 8 PRMTs, 21 protein lysine methyltransferases, 3 DNA methyltransferases, and one RNA methyltransferase)) EUB0000272b NSD3
T1 sequence (whole entry): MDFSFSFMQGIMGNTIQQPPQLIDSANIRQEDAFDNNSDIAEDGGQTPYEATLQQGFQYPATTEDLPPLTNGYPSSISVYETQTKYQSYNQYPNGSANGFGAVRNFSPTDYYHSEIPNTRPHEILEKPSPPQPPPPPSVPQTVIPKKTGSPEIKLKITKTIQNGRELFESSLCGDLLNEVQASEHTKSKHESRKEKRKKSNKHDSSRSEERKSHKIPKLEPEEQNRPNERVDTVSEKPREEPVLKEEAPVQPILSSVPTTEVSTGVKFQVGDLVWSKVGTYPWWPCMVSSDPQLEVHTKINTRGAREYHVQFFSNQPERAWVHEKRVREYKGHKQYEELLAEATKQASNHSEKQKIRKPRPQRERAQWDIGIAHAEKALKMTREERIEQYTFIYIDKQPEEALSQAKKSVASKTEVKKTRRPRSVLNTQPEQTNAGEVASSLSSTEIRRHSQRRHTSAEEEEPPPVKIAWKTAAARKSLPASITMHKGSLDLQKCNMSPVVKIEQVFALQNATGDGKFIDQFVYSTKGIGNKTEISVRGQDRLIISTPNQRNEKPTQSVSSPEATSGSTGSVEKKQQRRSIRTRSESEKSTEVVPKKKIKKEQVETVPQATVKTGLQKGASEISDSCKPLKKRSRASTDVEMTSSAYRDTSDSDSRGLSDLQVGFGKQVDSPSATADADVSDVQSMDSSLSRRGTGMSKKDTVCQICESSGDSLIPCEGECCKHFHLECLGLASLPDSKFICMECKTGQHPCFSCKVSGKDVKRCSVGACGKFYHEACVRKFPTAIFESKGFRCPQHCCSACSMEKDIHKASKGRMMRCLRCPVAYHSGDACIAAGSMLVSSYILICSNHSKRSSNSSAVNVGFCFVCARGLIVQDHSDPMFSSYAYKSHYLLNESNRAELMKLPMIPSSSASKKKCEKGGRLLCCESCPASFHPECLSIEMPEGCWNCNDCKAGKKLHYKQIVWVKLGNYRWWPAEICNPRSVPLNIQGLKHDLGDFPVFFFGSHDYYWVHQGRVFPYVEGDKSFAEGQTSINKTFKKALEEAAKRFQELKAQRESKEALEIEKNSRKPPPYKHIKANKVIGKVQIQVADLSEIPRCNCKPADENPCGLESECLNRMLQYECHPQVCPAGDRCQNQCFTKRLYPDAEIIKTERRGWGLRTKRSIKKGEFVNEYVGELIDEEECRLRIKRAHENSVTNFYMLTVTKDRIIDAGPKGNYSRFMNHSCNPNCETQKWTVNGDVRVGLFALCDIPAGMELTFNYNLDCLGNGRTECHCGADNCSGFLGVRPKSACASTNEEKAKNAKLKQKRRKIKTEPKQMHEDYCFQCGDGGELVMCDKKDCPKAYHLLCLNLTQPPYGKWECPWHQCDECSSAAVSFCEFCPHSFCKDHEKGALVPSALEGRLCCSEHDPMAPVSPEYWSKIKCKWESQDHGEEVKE

[5] = molecular target: Casein kinase II subunit alpha' (Homo sapiens) (UniProt P19784); assay: Selectivity interaction (KinomeScan (DiscoverX)) EUB0000595a CSNK2A2; details: at 10 µM
Sequence of Casein kinase II subunit alpha' (Homo sapiens) (P19784 whole entry, looked up): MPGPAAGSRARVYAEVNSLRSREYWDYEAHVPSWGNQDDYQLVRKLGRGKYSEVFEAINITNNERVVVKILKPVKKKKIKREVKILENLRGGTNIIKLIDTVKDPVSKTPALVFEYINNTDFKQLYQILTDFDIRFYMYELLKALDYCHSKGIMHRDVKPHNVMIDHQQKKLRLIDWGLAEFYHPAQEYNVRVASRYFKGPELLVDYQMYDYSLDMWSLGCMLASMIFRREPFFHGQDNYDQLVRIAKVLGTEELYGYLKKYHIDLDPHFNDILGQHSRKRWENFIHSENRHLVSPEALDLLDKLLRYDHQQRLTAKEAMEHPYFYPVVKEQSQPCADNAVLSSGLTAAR

[6] = molecular target: T2, Serine/threonine-protein kinase MAK (Homo sapiens) (UniProt P20794); assay: Selectivity interaction (KinomeScan (DiscoverX)) EUB0000666a MAK; details: at 10 µM
T2 sequence (whole entry): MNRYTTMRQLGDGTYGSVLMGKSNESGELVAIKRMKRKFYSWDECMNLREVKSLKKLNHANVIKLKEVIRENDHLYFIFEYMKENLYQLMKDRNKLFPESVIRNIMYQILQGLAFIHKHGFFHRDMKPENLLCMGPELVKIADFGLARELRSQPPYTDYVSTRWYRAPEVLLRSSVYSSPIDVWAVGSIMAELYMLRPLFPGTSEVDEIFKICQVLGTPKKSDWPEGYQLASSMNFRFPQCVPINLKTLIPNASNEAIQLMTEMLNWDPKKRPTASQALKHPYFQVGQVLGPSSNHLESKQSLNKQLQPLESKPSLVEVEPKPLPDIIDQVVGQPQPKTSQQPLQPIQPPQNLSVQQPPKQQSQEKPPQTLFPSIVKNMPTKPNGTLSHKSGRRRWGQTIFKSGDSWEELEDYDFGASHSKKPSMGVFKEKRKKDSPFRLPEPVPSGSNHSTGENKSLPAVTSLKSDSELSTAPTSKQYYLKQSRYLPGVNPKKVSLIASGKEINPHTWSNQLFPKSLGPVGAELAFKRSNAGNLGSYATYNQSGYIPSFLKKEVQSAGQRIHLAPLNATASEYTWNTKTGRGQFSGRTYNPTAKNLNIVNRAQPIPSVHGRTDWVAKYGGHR

Sequence of Serine/threonine-protein kinase 38-like (Homo sapiens) (Q9Y2H1 2-464 limits assumed): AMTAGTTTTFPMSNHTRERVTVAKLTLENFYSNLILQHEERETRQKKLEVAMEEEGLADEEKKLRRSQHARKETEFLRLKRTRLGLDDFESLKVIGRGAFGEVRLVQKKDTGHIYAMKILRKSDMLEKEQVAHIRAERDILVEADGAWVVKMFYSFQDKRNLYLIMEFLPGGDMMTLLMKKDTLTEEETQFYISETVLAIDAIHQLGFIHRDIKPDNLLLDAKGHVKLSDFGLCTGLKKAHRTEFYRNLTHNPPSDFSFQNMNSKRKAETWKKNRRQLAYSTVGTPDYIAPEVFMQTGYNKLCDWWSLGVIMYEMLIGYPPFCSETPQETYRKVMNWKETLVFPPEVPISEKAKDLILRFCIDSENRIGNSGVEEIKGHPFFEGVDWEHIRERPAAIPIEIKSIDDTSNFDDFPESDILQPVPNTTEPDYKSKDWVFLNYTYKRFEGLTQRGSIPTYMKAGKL

% of inhibition [1]: 77.4% | % of inhibition [2]: 13.2%
Compound: CC[C@@H]1[C@H](F)C(=O)N[C@@H]1COc1nccc2cc(C(N)=O)c(OC)cc12 [ZIMLOVISERTIB]

% of activity ([4]; at 1 µM): 104% | % of activity ([4]; at 10 µM): 99%
Compound: Cc1cc(C)cc([C@H]2c3cc(C)ccc3NC(=O)CN2C(=O)c2ccc(Br)s2)c1

The next lines start with the compound.

Compound: Cc1cc(CN)cc(C)c1-c1ncn(C)c1-c1cncn1C
dTM [3]: -0.88 K

Compound: COCC(=O)NC/C=C/c1ccc2ncnc(Nc3ccc(Oc4ccc(C)nc4)c(C)c3)c2c1 [CP-724714]
% of control [5]: 100%

Compound: O=C(NOC[C@H](O)CO)c1ccc(F)c(F)c1Nc1ccc(I)cc1F
% of control [6]: 100%

— ChEMBL document CHEMBL5465560, “Selectivity Literature for EUbOPEN Chemogenomic Library” (2024)
